The target in the test is T1, human metabotropic glutamate receptor 5 (hmGluR5) (Homo sapiens, UniProt P41594).
T1 construct: expressed in transfected cells
Put plainly: Calcium mobilization (FLIPR) assay for negative allosteric modulation, EC80 glutamate, hmGluR5 in HEK 293. The test is classed as cell-based. The conditions noted are these: HEK293; hmGluR5, inhibition of EC80 glutamate response; read-out: FLIPR maximum inhibition. The protocol: The cDNA for rat metabotropic glutamate receptor 5 (rmGluR5) and the cDNA for human metabotropic glutamate receptor 5 (hmGluR5) were generous gifts from S. Nakanishi (Kyoto University, Kyoto, Japan). The rmGluR5 or hmGluR5 was stably expressed in a HEK 293 cell line and grown in Dulbecco's Modified Eagle Medium (DMEM) (Invitrogen, Carlsbad, Calif.) with supplements (10% bovine calf serum, 4 mM glutamine, 100 units/mL penicillin, 100 μg/mL streptomycin and 0.75 mM G1418) at 37° C., 5% CO2. Twenty-four hours prior to assay, cells were seeded into 384-well black wall microtiter plates coated with poly-D-lysine. Just prior to assay, media was aspirated and cells dye-loaded (25 μL/well) with 3 μM Fluo-4/0.01% pluronic acid in assay buffer (Hank's Balanced Saline Solution (HBSS)): 150 mM NaCl, 5 mM KCl, 1 mM CaCl2, 1 mM MgCl2, plus 20 mM N-2-Hydroxyethylpiperazine-N′-2-ethanesulfonic acid (HEPES), pH 7.4, 0.1% bovine serum albumin (BSA) and 2.5 mM probenicid) for 1 hour in 5% CO2 at 37° C. After excess dye was discarded, cells were washed in assay buffer and layered with a final volume equal to 30 μL/well. Basal fluorescence is monitored in a fluorometric imaging plate reader (FLIPR) (Molecular Devices, Sunnyvale, Calif.) with an excitation wavelength of 488 nm and an emission range of 500 to 560 nm. Laser excitation energy was adjusted so that basal fluorescence readings were approximately 10,000 relative fluorescent units. Cells were stimulated with an EC20 or an EC80 concentration of glutamate in the presence of a compound to be tested, both diluted in assay buffer, and relative fluorescent units were measured at defined intervals (exposure=0.6 sec) over a 3 min period at room temperature. Basal readings derived from negative controls were subtracted from all samples. Maximum change in fluorescence was calculated for each well. Concentration-response curves derived from the maximum change in fluorescence were analyzed by nonlinear regression (Hill equation). A negative modulator can be identified from these concentration-response curves if a compound produces a concentration dependent inhibition of the EC80 glutamate response.

SMILES strings stand for the structures.

Consider 23 molecules from patent US9359297B2, “Spirolactam derivatives and uses of same” (H. Lundbeck A/S, priority 2009, dated 2016).

T1 sequence (P41594 21-1212): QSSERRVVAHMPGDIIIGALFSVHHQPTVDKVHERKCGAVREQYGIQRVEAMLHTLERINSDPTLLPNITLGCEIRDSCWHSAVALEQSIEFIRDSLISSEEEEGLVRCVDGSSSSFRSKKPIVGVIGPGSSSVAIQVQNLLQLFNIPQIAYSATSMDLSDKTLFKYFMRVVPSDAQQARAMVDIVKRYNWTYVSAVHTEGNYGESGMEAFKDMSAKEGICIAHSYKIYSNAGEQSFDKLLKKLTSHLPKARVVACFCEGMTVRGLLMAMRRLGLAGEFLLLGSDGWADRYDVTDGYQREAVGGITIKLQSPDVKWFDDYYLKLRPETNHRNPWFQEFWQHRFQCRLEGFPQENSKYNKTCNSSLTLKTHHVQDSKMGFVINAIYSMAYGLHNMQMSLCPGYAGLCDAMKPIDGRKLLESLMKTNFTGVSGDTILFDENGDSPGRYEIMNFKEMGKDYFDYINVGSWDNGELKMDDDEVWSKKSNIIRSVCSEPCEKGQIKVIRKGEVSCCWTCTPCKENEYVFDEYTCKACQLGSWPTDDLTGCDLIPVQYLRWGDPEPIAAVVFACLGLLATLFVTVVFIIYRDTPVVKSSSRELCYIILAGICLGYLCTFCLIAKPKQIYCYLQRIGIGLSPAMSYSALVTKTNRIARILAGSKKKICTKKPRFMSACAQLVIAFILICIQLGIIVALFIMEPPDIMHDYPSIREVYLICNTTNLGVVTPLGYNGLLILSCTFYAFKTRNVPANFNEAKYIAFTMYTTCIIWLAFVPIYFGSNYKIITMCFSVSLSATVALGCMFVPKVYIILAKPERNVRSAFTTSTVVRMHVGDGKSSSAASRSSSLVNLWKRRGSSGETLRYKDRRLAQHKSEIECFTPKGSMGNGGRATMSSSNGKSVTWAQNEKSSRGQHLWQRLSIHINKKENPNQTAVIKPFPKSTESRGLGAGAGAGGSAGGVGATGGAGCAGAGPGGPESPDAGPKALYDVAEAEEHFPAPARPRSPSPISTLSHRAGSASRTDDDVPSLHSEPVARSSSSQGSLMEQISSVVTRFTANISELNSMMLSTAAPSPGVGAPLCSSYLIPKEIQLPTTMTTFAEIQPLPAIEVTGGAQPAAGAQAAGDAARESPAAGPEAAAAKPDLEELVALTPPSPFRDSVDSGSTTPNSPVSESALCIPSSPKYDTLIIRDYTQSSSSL

On to `Cc1cccc(C(=O)N[C@@H]2CC(F)(F)C[C@@]3(CCN(c4cccc(F)c4)C3=O)C2)n1` (relative stereo) [Example 107, cis-6-Methyl-pyridine-2-carboxylic acid [9,9-difluoro-2-(3-fluoro-phenyl)-1-oxo-2-aza-spiro[4.5]dec-7-yl]-amide], for which the Emax was 47 to 93%.
To `Cc1cccc(C(=O)N[C@@H]2CC(F)(F)C[C@@]3(CCN(c4ccnc(C)n4)C3=O)C2)n1` (relative stereo) [Example 108, cis-6-Methyl-pyridine-2-carboxylic acid [9,9-difluoro-2-(2-methyl-pyrimidin-4-yl)-1-oxo-2-aza-spiro[4.5]dec-7-yl]-amide] belongs 47 to 93%; to `O=C(N[C@@H]1CC(F)(F)C[C@@]2(CCN(c3ccc(F)cn3)C2=O)C1)c1ccccn1` (relative stereo) [Example 111, cis-Pyridine-2-carboxylic acid [9,9-difluoro-2-(5-fluoro-pyridin-2-yl)-1-oxo-2-aza-spiro[4.5]dec-7-yl]-amide], 47 to 93%; to `Cc1nccc(N2CC[C@]3(C[C@H](NC(=O)c4ccccn4)CC(F)(F)C3)C2=O)n1` (relative stereo) [Example 112, cis-Pyridine-2-carboxylic acid [9,9-difluoro-2-(2-methyl-pyrimidin-4-yl)-1-oxo-2-aza-spiro[4.5]dec-7-yl]-amide], 47 to 93%.
In the case of `Cc1nccc(C(=O)N[C@@H]2CC(=O)C[C@@]3(CCN(c4cc(F)cc(F)c4)C3=O)C2)n1` (relative stereo) [Example 115, cis-2-Methyl-pyrimidine-4-carboxylic acid [2-(3,5-difluoro-phenyl)-1,9-dioxo-2-aza-spiro[4.5]dec-7-yl]-amide], the Emax fell in the range of 47 to 93%.
To `Cc1nccc(C(=O)N[C@@H]2C[C@H](O)C[C@@]3(CCN(c4cc(F)cc(F)c4)C3=O)C2)n1` (relative stereo) [Example 116, cis-2-Methyl-pyrimidine-4-carboxylic acid [2-(3,5-difluorphenyl)-9-hydroxy-1-oxo-2-aza-spiro[4.5]dec-7-yl]-amide] belongs 47 to 93%.
To `Cc1nccc(C(=O)N[C@@H]2C[C@@H](O)C[C@@]3(CCN(c4cc(F)cc(F)c4)C3=O)C2)n1` (relative stereo) [Example 117, trans-2-Methyl-pyrimidine-4-carboxylic acid [2-(3,5-difluorphenyl)-9-hydroxy-1-oxo-2-aza-spiro[4.5]dec-7-yl]-amide] belongs 47 to 93%; to `Cc1nccc(C(=O)N[C@@H]2C[C@@H](F)C[C@@]3(CCN(c4cc(F)cc(F)c4)C3=O)C2)n1` (relative stereo) [Example 122, trans-2-Methyl-pyrimidine-4-carboxylic acid [2-(3,5-difluoro-phenyl)-9-fluoro-1-oxo-2-aza-spiro[4.5]dec-7-yl]-amide], 47 to 93%; to `O=C1C[C@@H](NC(=O)c2cccc(F)c2)C[C@]2(CCN(c3cccc(F)c3)C2=O)C1` (relative stereo) [Example 123, cis-3-Fluoro-N-[2-(3-fluoro-phenyl)-1,9-dioxo-2-aza-spiro[4.5]dec-7-yl]-benzamide], 47 to 93%.
With `Cc1cccc(C(=O)N[C@@H]2CC(=O)C[C@@]3(CCN(c4cccc(F)c4)C3=O)C2)n1` (relative stereo) [Example 124, cis-6-Methyl-pyridine-2-carboxylic acid [2-(3-fluoro-phenyl)-1,9-dioxo-2-aza-spiro[4.5]dec-7-yl]-amide], the Emax was in the range of 47 to 93%.
To `O=C(N[C@@H]1C[C@@H](O)C[C@@]2(CCN(c3cccc(F)c3)C2=O)C1)c1cccc(F)c1` (relative stereo) [Example 125, trans-3-Fluoro-N-[2-(3-fluoro-phenyl)-9-hydroxy-1-oxo-2-aza-spiro[4.5]dec-7-yl]-benzamide] belongs 47 to 93%; to `Cc1cccc(C(=O)N[C@@H]2C[C@@H](O)C[C@@]3(CCN(c4cccc(F)c4)C3=O)C2)n1` (relative stereo) [Example 126, trans-6-Methyl-pyridine-2-carboxylic acid [2-(3-fluoro-phenyl)-9-hydroxy-1-oxo-2-aza-spiro[4.5]dec-7-yl]-amide], 47 to 93%; to `COc1cccc(N2CC[C@]3(CCC[C@H](NC(=O)c4cccc(F)c4)C3)C2=O)c1` (relative stereo) [Example 130, cis-3-Fluoro--N-[-2-(3-methoxy-phenyl)-1-oxo-2-aza-spiro[4.5]dec-7-yl]-benzamide], 47 to 93%.
To `O=C(N[C@H]1CCC[C@]2(CCN(c3cccc(O)c3)C2=O)C1)c1cccc(F)c1` (relative stereo) [Example 131, cis-3-Fluoro-N-[2-(3-hydroxy-phenyl)-1-oxo-2-aza-spiro[4.5]dec-7-yl]-benzamide] belongs 47 to 93%; to `COc1ccc(N2CC[C@]3(CCC[C@H](NC(=O)c4cccc(F)c4)C3)C2=O)cc1` (relative stereo) [Example 133], 47 to 93%.
To `O=C(N[C@H]1CCC[C@]2(CCN(c3cccc(CCCN4CCOCC4)c3)C2=O)C1)c1cccc(F)c1` (relative stereo) [Example 134, cis-3-Fluoro-N-{2-[3-(3-morpholin-4-yl-propyl)-phenyl]-1-oxo-2-aza-spiro[4.5]dec-7-yl}-benzamide] belongs 47 to 93%; to `COc1cc(F)cc(N2CC[C@]3(CCC[C@H](NC(=O)c4cccc(F)c4)C3)C2=O)c1` (relative stereo) [Example 135, cis-3-Fluoro-N-[2-(3-fluoro-5-methoxy-phenyl)-1-oxo-2-aza-spiro[4.5]dec-7-yl]-benzamide], 47 to 93%; to `O=C(N[C@H]1CCC[C@]2(CCN(c3cccc(OCC(=O)N4CCCC4)c3)C2=O)C1)c1cccc(F)c1` (relative stereo) [Example 136, cis-3-Fluoro-N-{1-oxo-2-[3-(2-oxo-2-pyrrolidin-1-yl-ethoxy)-phenyl]-2-aza-spiro[4.5]dec-7-yl}-benzamide], 47 to 93%.
Consider `O=C(N[C@H]1CCC[C@]2(CCN(c3cccc(F)c3)C2=O)C1)c1nccs1` (relative stereo) [Example 137, cis-Thiazole-2-carboxylic acid [2-(3-fluoro-phenyl)-1-oxo-2-aza-spiro[4.5]dec-7-yl]-amide], for which the Emax lay in the range of 47 to 93%.
On to `CN(C)c1ccc(N2CC[C@]3(CCC[C@H](NC(=O)c4cccc(F)c4)C3)C2=O)cc1` (relative stereo) [Example 138, cis-N-[2-(4-Dimethylamino-phenyl)-1-oxo-2-aza-spiro[4.5]dec-7-yl]-3-fluoro-benzamide], for which the Emax lay within 47 to 93%.
To `O=C(N[C@H]1CCC[C@]2(CCN(c3nccs3)C2=O)C1)c1cccc(F)c1` (relative stereo) [Example 139, cis-3-Fluoro-N-(1-oxo-2-thiazol-2-yl-2-aza-spiro[4.5]dec-7-yl)-benzamide] belongs 47 to 93%.
To `Cc1nccc(N2CC[C@]3(CCC[C@H](NC(=O)c4nccs4)C3)C2=O)n1` (relative stereo) [Example 140] belongs 47 to 93%.
For the molecule `COc1cc(F)cc(N2CC[C@@]3(CCC[C@@H](NC(=O)c4ccnc(C)n4)C3)C2=O)c1` (relative stereo) [Example 141, cis-2-Methyl-pyrimidine-4-carboxylic acid [2-(3-fluoro-5-methoxy-phenyl)-1-oxo-2-aza-spiro[4.5]dec-7-yl]-amide], the Emax lay within 47 to 93%.
